Laboratory results taken from article PMC10819888, “Benzimidazole-Based Derivatives as Apoptotic Antiproliferative Agents: Design, Synthesis, Docking, and Mechanistic Studies” (Molecules, 2024).

What was measured:
Type in all cases: cell-based, human
NCI-H460 = assay: NCI-60 five-dose assay; conditions: NCI-H460, Non-Small Cell Lung Cancer
OVCAR-5 = assay: NCI-60 five-dose assay; conditions: OVCAR-5, Ovarian Cancer
MCF7 = assay: NCI-60 five-dose assay; conditions: MCF7, Breast Cancer
Melanoma subpanel = assay: NCI-60 five-dose assay, subpanel; conditions: Melanoma
Renal Cancer subpanel = assay: NCI-60 five-dose assay, subpanel; conditions: Renal Cancer
EKVX = assay: NCI-60 five-dose assay; conditions: EKVX, Non-Small Cell Lung Cancer
SK-OV-3 = assay: NCI-60 five-dose assay; conditions: SK-OV-3, Ovarian Cancer
OVCAR-3 = assay: NCI-60 five-dose assay; conditions: OVCAR-3, Ovarian Cancer
NCI-H23 = assay: NCI-60 five-dose assay; conditions: NCI-H23, Non-Small Cell Lung Cancer
RPMI-8226 = assay: NCI-60 five-dose assay; conditions: RPMI-8226, Leukemia
SW-620 = assay: NCI-60 five-dose assay; conditions: SW-620, Colon Cancer
NCI/ADR-RES = assay: NCI-60 five-dose assay; conditions: NCI/ADR-RES, Ovarian Cancer
ACHN = assay: NCI-60 five-dose assay; conditions: ACHN, Renal Cancer
LOX IMVI = assay: NCI-60 five-dose assay; conditions: LOX IMVI, Melanoma
SN12C = assay: NCI-60 five-dose assay; conditions: SN12C, Renal Cancer
OVCAR-8 = assay: NCI-60 five-dose assay; conditions: OVCAR-8, Ovarian Cancer
OVCAR-4 = assay: NCI-60 five-dose assay; conditions: OVCAR-4, Ovarian Cancer
RXF 393 = assay: NCI-60 five-dose assay; conditions: RXF 393, Renal Cancer
HT29 = assay: NCI-60 five-dose assay; conditions: HT29, Colon Cancer
[1] = Homo sapiens, read-out: GI50 Conc. per Cell Line
[2] = Homo sapiens, read-out: LC50 (the source's name)
[3] = Homo sapiens, average sensitivity of all subpanel cell lines, read-out: GI50 Subpanel MID b

`COc1ccc(C=NNC(=O)c2ccc3[nH]c(-c4ccc(Cl)cc4)nc3c2)cc1` [Compound 4g, N′-(4-Methoxybenzylidene)-2-(4-chlorophenyl)-1H-benzimidazole-5-carbohydrazide] showed an LC50 (NCI-H460; Homo sapiens) of 7.05 µM, a GI50 (NCI-H460; [1]) of 1.83 µM and a TGI (NCI-H460) of 3.59 µM. The GI50 (OVCAR-5; [1]) was 2.35 µM, the CC50 (OVCAR-5; [2]) was 33.5 µM and the TGI (OVCAR-5) was 6.89 µM. The GI50 (MCF7; [1]) was 1.47 µM, the CC50 (MCF7; [2]) was 10 µM and the TGI (MCF7) was 3.84 µM. For the same molecule, the GI50 (Melanoma subpanel; [3]) was 2.43 µM, the “GI50 Selectivity Ratio (MID a/MID b)” value (Melanoma subpanel) was 1.04 and the GI50 (Renal Cancer subpanel; [3]) was 2.2 µM. For the same molecule, the “GI50 Selectivity Ratio (MID a/MID b)” value (Renal Cancer subpanel) was 1.14, the TGI (EKVX) was 5.84 µM and the GI50 (EKVX; [1]) was 2.11 µM. The CC50 (EKVX; [2]) was 36.6 µM, the GI50 (SK-OV-3; [1]) was 2.3 µM and the CC50 (SK-OV-3; [2]) was 59.1 µM. For the same molecule, the TGI (SK-OV-3) was 12.80 µM, the GI50 (OVCAR-3; [1]) was 2.28 µM and the CC50 (OVCAR-3; [2]) was 16 µM. It also gave a TGI (OVCAR-3) of 5.14 µM, a GI50 (NCI-H23; [1]) of 2.74 µM and a CC50 (NCI-H23; [2]) of 75.9 µM. It also gave a TGI (NCI-H23) of 11.20 µM, a GI50 (RPMI-8226; [1]) of 0.997 µM and a CC50 (RPMI-8226; [2]) of over 100 µM. It also gave a TGI (RPMI-8226) of 4.77 µM, an LC50 (SW-620; Homo sapiens) of 31 µM and a GI50 (SW-620; [1]) of 2.41 µM. It also gave a TGI (SW-620) of 5.58 µM, a GI50 (NCI/ADR-RES; [1]) of 7.81 µM and a CC50 (NCI/ADR-RES; [2]) of over 100 µM. It also gave a TGI (NCI/ADR-RES) of over 100 µM, a TGI (ACHN) of 5.04 µM and a GI50 (ACHN; [1]) of 2 µM. The CC50 (ACHN; [2]) was 16.9 µM, the GI50 (LOX IMVI; [1]) was 2.19 µM and the CC50 (LOX IMVI; [2]) was 7.34 µM. For the same molecule, the TGI (LOX IMVI) was 4.01 µM, the GI50 (SN12C; [1]) was 2.46 µM and the CC50 (SN12C; [2]) was 33.9 µM. The TGI (SN12C) was 6.79 µM, the GI50 (OVCAR-8; [1]) was 3.19 µM and the CC50 (OVCAR-8; [2]) was over 100 µM. The TGI (OVCAR-8) was 11.50 µM, the GI50 (OVCAR-4; [1]) was 1.79 µM and the CC50 (OVCAR-4; [2]) was 6.33 µM. For the same molecule, the TGI (OVCAR-4) was 3.36 µM, the GI50 (RXF 393; [1]) was 1.86 µM and the CC50 (RXF 393; [2]) was 7.76 µM. The TGI (RXF 393) was 3.80 µM, the TGI (HT29) was 22.10 µM and the GI50 (HT29; Homo sapiens, HT-29, read-out: GI50 Conc. per Cell Line) was 3.09 µM. The CC50 (HT29; Homo sapiens, HT-29, read-out: LC50 (the source's name)) was over 100 µM.
